Laboratory results published in PubChem BioAssay (NCI).
Several values for one entry are separate records, joined by “and”; a condition that tells them apart may be missing. Equal values may be shown once.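 Grown in 96-well plates, cells were treated for 48 hours with each compound at five concentrations. Insufficient inhibition: endpoint recorded as highest concentration tested. GI50: concentration for 50% inhibition of growth. TGI marks complete inhibition of growth.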

Tests used:
Experiment in all cases: NCI tumour cell line growth inhibition, 48 h
[1] = tested on: HOP-62 NSCLC
[2] = tested on: T-47D breast
[3] = tested on: NCI/ADR-RES ovarian
[4] = tested on: HOP-92 NSCLC
[5] = tested on: A498 renal
[6] = tested on: UACC-62 melanoma
[7] = tested on: CAKI-1 renal
[8] = tested on: UACC-257 melanoma
[9] = tested on: MDA-MB-435
[10] = tested on: HL-60(TB) leukemia

Structure (SMILES) | GI50 [1] [µM] | TGI [1] | GI50 [2] [µM] | TGI [2] [µM] | GI50 [3] [µM] | TGI [3] | GI50 [4] [µM] | TGI [4] [µM] | GI50 [5] [µM] | TGI [5] [µM] | GI50 [6] [µM] | TGI [6] [µM] | GI50 [7] [µM] | TGI [7] [µM] | GI50 [8] | TGI [8] [µM] | GI50 [9] [µM] | TGI [9] | GI50 [10] [µM] | TGI [10] [µM]
Nc1cc2ccncc2c2ccccc12 | 13.7 | > 100 µM | 22.3 | > 100 | 8.7 | > 100 µM | 19.6 | 68.9 | 1.84 | 13.7 | 13.5 | 38.7 | 18.4 | > 100 | 13.6 µM | 29.7 | 17.2 | 60 µM | 20 | 61.9
Cn1ccnc1C(=O)/C=C/c1ccc(CC(=O)Nc2cc(F)c(F)c(F)c2)cc1 | 1.17 | 4.94 µM | 1.29 | 8.14 | 1.09 | > 25 µM | 2.59 | 7.44 | 3.58 | 7.65 | 2.14 | 9.59 | 2.27 | 7.54 | 3.59 µM | 10.1 | 3.36 | 10.4 µM | 0.716 | 2.45
NS(=O)(=O)c1ccc(N=Nc2cc3ccccc3c(C(=O)O)c2O)cc1 | – | > 100 µM | – | > 100 | – | > 100 µM | – | > 100 | – | > 86.8 | – | 97 | – | > 100 | – | > 92.3 | – | > 100 µM | – | > 100
COc1cc(C2CC(c3cc(Cl)c(C)cc3O)=NN2c2ccc(S(N)(=O)=O)cc2)cc(OC)c1OC (stereo not drawn) | 2.1 | 4.56 µM | 2.28 | 7.06 | 2.58 | 7.53 µM | 2.14 | 6.99 | 4.15 | 15.3 | 2.47 | 8.5 | 2.55 | 16.9 | 4.13 µM | 15.2 | 2.57 | 8.47 µM | 2.95 | 14.8
CCN(CC)c1ccc(/C=C2/NC(=O)NC2=O)cc1 | 10 | > 100 µM | 4.09 | > 71.5 | 1.93 | 12.2 µM | 9.01 | > 93.1 | 7.44 | > 89.3 | 1.8 | 12.9 | 6.19 | > 100 | 4.01 µM | > 100 | 0.42 | 3.53 µM | 4.9 | > 100
CC[C@@]1(O)C(=O)N(CCN(C)C)Cc2c1cc1n(c2=O)Cc2cc3ccccc3nc2-1 | 5.21 | > 100 µM | 21 | > 100 | 13.7 | > 94.8 µM | > 25.9 | > 100 | 56.2 | > 100 | 7.2 | > 100 | 4.27 | > 100 | > 100 µM | > 100 | > 100 | > 100 µM | 5.4 | > 100
O=C(O)CNCc1c2ccccc2nc2ccccc12 | – | > 100 µM | – | > 100 | – | > 100 µM | – | 85.4 | – | > 100 | – | > 100 | – | > 90.8 | – | > 94.9 | – | > 100 µM | – | 29.6
COc1cc2cc(Oc3ccc(NC(=O)Nc4cc(C(F)(F)F)cc(C(F)(F)F)c4)cc3)c(C)nc2cc1OCCN1CCCCC1 | 1.64 | 3.3 µM | 1.85 | 3.77 | 1.68 | 3.24 µM | 1.24 | 2.57 | 1.75 | 3.23 | 1.82 | 3.31 | 1.42 | 2.86 | 1.98 µM | 3.97 | 1.78 | 3.22 µM | 2.25 | 4.67
O=C(Nc1ccc(I)cc1F)c1cc(F)ccc1O | 1.77 | 6.46 µM | 0.313 | 3 | 0.401 | > 27.7 µM | 0.169 | 0.504 | 0.163 | 0.634 | 0.259 | 0.853 | 0.342 | 2.86 | 0.392 µM | 2.89 | 0.512 | 4.45 µM | 0.382 | 1.93
CC(=O)O[C@H]1Cc2c([nH]c3ccccc23)[C@@H](c2ccc(Cl)cc2)N1C(=O)CCNC(C)(C)C | 2.67 | 7.07 µM | 3.6 | 8.36 | 5.57 | 12.2 µM | 1.1 | 5.61 | 1.9 | 5.83 | 3.92 | 8.28 | 2.77 | 7.01 | 4.99 µM | 9.66 | 4.68 | 9.06 µM | 2.51 | 11.7
O=C1c2ccccc2-c2c1c1ccccc1c(=O)n2CCCNCCO | 0.317 | 2.61 µM | 1.05 | 7.58 | 1.67 | 8.7 µM | 0.357 | 2.61 | – | 1.28 | 0.304 | 1.74 | 0.438 | 3.34 | 1.25 µM | 4.39 | 0.895 | 4.92 µM | 0.175 | 0.88
CCN(CC)CCn1nc2c3c(cccc3c1=O)-c1ccccc1-2 | 2.18 | 15.9 µM | 2.06 | 27 | 2.19 | 45.1 µM | 3.11 | 24.9 | 2.98 | 9.95 | 1.98 | 7.81 | 1.39 | > 50 | 1.96 µM | 10.7 | 2.96 | 10.5 µM | 1.8 | 9.22
COc1cc2cc(C(=O)N3C[C@H](CCl)c4c3cc(O)c3ccccc43)[nH]c2c(OC)c1OC | 0.0157 | 0.198 µM and 1.06 µM | 0.0256 | 0.362 | 1.34 | 0.563 µM and 4.62 µM | – | 2.65 | – | 0.684 | 0.0351 | – | < 0.01 | – | 0.135 µM and 0.0459 µM | – | 0.0201 | 0.634 µM and 0.0912 µM | – | 0.0105
CCOC(=O)Nc1ccc2nc(Sc3ccc(Cl)cc3)sc2c1 | 9.43 | > 100 µM | 5.93 | > 78.7 | 1.07 | 47.3 µM | 7.98 | 65.4 | 1.19 | 26.8 | 1.6 | 48.3 | 1.95 | 42 | 9.87 µM | 45.2 | 0.222 | 0.561 µM | 0.815 | 30.1
Cc1cncc2cccc(S(=O)(=O)N3CCCNC[C@@H]3C)c12 | 11.5 | > 100 µM | > 80.3 | > 100 | 25.4 | > 100 µM | 0.108 | > 100 | 1.61 | 17.7 | > 47 | > 100 | 5.91 | > 100 | > 100 µM | > 100 | > 100 | > 100 µM | 36.2 | 100
C/C(=C\COc1ccc2ccc(=O)oc2c1)CCC(=O)C(C)(C)O | – | > 100 µM | – | > 100 | – | > 100 µM | – | 64.5 | – | 64.2 | – | 37.1 | – | > 100 | – | > 100 | – | 59.2 µM | – | 45.7
S=C1NC2=C(CCOc3c2ccc2ccccc32)C(c2ccc(Cl)cc2)N1 (stereo not drawn) | 70.8 | > 100 µM | 3.36 | 17.2 | 31.9 | > 100 µM | 30.5 | > 100 | 26.2 | 68 | 21.7 | 76.4 | 32.5 | 72.5 | 45.4 µM | > 100 | 41.5 | > 100 µM | 32.7 | > 100
CC1CCCc2c(CC3CC(=O)NC(=O)C3)nc(N)nc21 (stereo not drawn) | – | > 100 µM | – | > 100 | – | > 100 µM | – | > 100 | – | > 100 | – | > 100 | – | > 100 | – | > 100 | – | > 100 µM | – | > 100
